Source: the NIST ThermoML archive (doi:10.1016/j.fluid.2013.11.028)

Assays:
[1] = wn = mass fraction of the nth substance listed; details: 101 kPa, Liquid; for viscosity: Falling or rolling sphere viscometry; for binary diffusion coefficient: Taylor dispersion method; for mass density: Vibrating tube method
[2] = 101 kPa, Liquid, Vibrating tube method

CN(C)CCN(C)C [N,N,N',N'-tetramethyl-1,2-diaminoethane] + O
[1]
Details	binary diffusion coefficient [m2/s]	mass density [kg/m3]	viscosity [mPa·s]
303.15 K, w1 = 0	7.34e-10	–	–
303.15 K, w1 = 0.1	5.61e-10	982.9	1.34
303.15 K, w1 = 0.2	4.62e-10	972.6	2.338
303.15 K, w1 = 0.3	3.74e-10	962.1	3.963
303.15 K, w1 = 0.4	3.12e-10	947.8	6.207
303.15 K, w1 = 1	–	767.3	–
308.15 K, w1 = 0	8.35e-10	–	–
308.15 K, w1 = 0.1	6.29e-10	981	1.179
308.15 K, w1 = 0.2	5.25e-10	970	1.983
308.15 K, w1 = 0.3	4.4e-10	958.6	3.243
308.15 K, w1 = 0.4	3.66e-10	943.7	4.925
308.15 K, w1 = 1	–	762.9	–
313.15 K, w1 = 0	9.38e-10	–	–
313.15 K, w1 = 0.1	7.16e-10	979	1.046
313.15 K, w1 = 0.2	5.74e-10	967.3	1.704
313.15 K, w1 = 0.3	4.91e-10	955.1	2.705
313.15 K, w1 = 0.4	4.25e-10	939.5	3.941
313.15 K, w1 = 1	–	759.1	–
318.15 K, w1 = 0	1.05e-09	–	–
318.15 K, w1 = 0.1	8.01e-10	976.7	0.933
318.15 K, w1 = 0.2	6.38e-10	964.4	1.481
318.15 K, w1 = 0.3	5.53e-10	951.5	2.287
318.15 K, w1 = 0.4	4.61e-10	935.3	3.205
318.15 K, w1 = 1	–	754.7	–
323.15 K, w1 = 0	1.18e-09	–	–
323.15 K, w1 = 0.1	9.51e-10	974.3	0.839
323.15 K, w1 = 0.2	7.5e-10	961.4	1.301
323.15 K, w1 = 0.3	6.29e-10	947.8	1.96
323.15 K, w1 = 0.4	5.31e-10	931	2.682
323.15 K, w1 = 1	–	750.3	–

CNCCCN [N-methyl-1,3-diaminopropane]
[2]
Details	mass density [kg/m3]
303.15 K	849.1
308.15 K	844.7
313.15 K	840.3
318.15 K	835.9
323.15 K	831.5
